According to publication PMC7282810, “Existence and functions of a kisspeptin neuropeptide signaling system in a non-chordate deuterostome species” (eLife, 2020):
Entries after “also recorded” stand apart in the source; their conditions may differ. *1 amine or outer side, *2 acyl side, *3 side chain or, on linkers, in order; H or OH if unused. Where a SMILES comes first, the peptide text is derived from it. Bridges are numbered along the chain shown (N, C = ends). Where no end group is shown, it is not given here. [ ]: non-standard residue; d: D form. The star is where a group is joined. Leu(3R-OH,Nα-propionyl) = CCC(=O)N[C@H](C(=O)*)[C@H](O)C(C)C; X1 = CC(C)[C@@H](O[*:3])[C@H](N[*:1])C(=O)[*:2]; NMeT = CN[C@H](C(=O)O)[C@@H](C)O; dPhLac = O=C(O)[C@H](O)Cc1ccccc1; NMeA = CN[C@@H](C)C(=O)O; NMeDha = C=C(NC)C(=O)O

What was measured:
[1] = molecular target: T1, AjKissR2 (Apostichopus japonicus, UniProt A0A5B7LIE4); assay: cell-based; format: cell-based; conditions: for Effect of inhibitor pre-treatment on AjKiss1a/AjKiss1b-elicited Ca2+ mobilization (in words): 100 nM AjKiss1a or AjKiss1b, pre-treated 12 hr PTX 100 ng/mL, or 1 hr FR900359 1.0 μM, U73122 10 μM, BAPTA-AM 100.0 μM, EGTA 5.0 mM; for Potency in triggering intracellular Ca2+ mobilization via AjKissR2 (in words): HEK293, Fura-2/AM, vertebrate kisspeptins and FITC-AjKiss1a at 1.0 μM
T1 sequence (A0A5B7LIE4 1-327): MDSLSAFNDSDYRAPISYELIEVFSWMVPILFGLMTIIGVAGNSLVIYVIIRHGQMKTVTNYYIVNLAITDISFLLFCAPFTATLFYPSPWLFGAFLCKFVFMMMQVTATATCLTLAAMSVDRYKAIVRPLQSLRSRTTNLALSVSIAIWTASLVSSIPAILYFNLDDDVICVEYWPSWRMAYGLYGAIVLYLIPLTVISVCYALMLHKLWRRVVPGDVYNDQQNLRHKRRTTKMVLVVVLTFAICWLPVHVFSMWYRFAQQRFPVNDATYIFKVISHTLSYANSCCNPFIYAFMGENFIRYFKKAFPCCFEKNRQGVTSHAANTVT
Experimental: (§1) The fluorescent Ca^2+ indicator Fura-2/AM was used to detect intracellular calcium flux ([Li et al., 2010]). Briefly, the HEK293 cells expressing the AjKissR1, AjKissR2 or vertebrate kisspeptin receptor were washed twice with PBS and suspended at 5 × 10^6 cells/mL in Hanks’ balanced salt solution. The cells were then loaded with 3.0 μM Fura-2/AM for 30 min and washed twice in Hanks’ solution. They were then stimulated with the indicated concentrations of different predicted A. japonicus kisspeptins or vertebrate kisspeptins. Finally, intracellular calcium flux was measured for 60 s, by determining the ratio of excitation wavelengths at 340 and 380 nm using a fluorescence spectrometer (Infinite 200 PRO, Tecan, Männedorf, Switzerland). All of the experiments for measuring Ca^2+ mobilization were repeated independently at least three times.

[2] = molecular target: T2, AjKissR1 (Apostichopus japonicus, UniProt A0A5B7LK60); assay: cell-based; format: cell-based; conditions: for Effect of inhibitor pre-treatment on AjKiss1a/AjKiss1b-elicited Ca2+ mobilization (in words): 100 nM AjKiss1a or AjKiss1b, pre-treated 12 hr PTX 100 ng/mL, or 1 hr FR900359 1.0 μM, U73122 10 μM, BAPTA-AM 100.0 μM, EGTA 5.0 mM; for Potency in triggering intracellular Ca2+ mobilization via AjKissR1 (in words): HEK293, Fura-2/AM, vertebrate kisspeptins and FITC-AjKiss1a at 1.0 μM
T2 sequence (A0A5B7LK60 1-378): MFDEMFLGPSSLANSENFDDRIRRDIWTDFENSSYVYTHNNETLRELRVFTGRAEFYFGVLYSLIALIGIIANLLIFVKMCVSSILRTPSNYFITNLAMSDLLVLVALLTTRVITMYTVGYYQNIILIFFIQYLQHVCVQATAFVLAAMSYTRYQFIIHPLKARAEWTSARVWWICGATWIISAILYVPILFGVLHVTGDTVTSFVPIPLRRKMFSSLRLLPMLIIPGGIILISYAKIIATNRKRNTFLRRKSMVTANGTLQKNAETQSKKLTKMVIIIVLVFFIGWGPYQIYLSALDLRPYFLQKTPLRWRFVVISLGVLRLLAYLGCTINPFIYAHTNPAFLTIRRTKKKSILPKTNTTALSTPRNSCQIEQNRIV
Experimental: as §1

[3] = molecular target: T2, AjKissR1; assay: ERK1/2 phosphorylation (western blot) in HEK293 cells expressing FLAG-AjKissR1; format: cell-based; conditions: for Effect of inhibitor on AjKiss1b-10-activated ERK1/2 phosphorylation (in words): pre-treated 1 hr, U73122 10 μM, Gö6983 1.0 μM, AjKiss1b-10 1.0 μM
Experimental: (§2) To examine the phosphorylation of ERK, cells that expressed AjKissr1/2 or other GPR54s were incubated for the indicated times with different concentrations of kisspeptins. Subsequently, cells were lysed with lysis buffer (Beyotime) that contained protease inhibitor (Roche) at 4°C for 30 min on a rocker and then scraped. Proteins were then electrophoresed on a 10% SDS polyacrylamide gel and transferred to polyvinylidene difluoride (PVDF) membranes. Membranes were blocked with 5% skimmed milk, then probed with rabbit anti-phospho-ERK1/2(Thr^202/Tyr^204) antibody (1:2000; Cell Signaling Technology), followed by detection using HRP-conjugated goat anti-rabbit IgG (Beyotime). Blots were stripped and reprobed using anti-ERK1/2 antibody (1:2000; Cell Signaling Technology) as a control for protein loading.
(§3) Immunoreactive bands were detected with an enhanced chemiluminescent substrate (Beyotime), and the membrane was scanned using a Tanon 5200 Chemiluminescent Imaging System (Tanon Science and Technology, Shanghai, China).

[4] = molecular target: T1, AjKissR2; assay: ERK1/2 phosphorylation (western blot) in HEK293 cells expressing FLAG-AjKissR2; format: cell-based; conditions: for Effect of inhibitor on AjKiss1b-10-activated ERK1/2 phosphorylation (in words): pre-treated 1 hr, U73122 10 μM, Gö6983 1.0 μM, AjKiss1b-10 1.0 μM
Experimental: as §2, §3

[5] = molecular target: T1, AjKissR2; assay: Ligand competition binding assay (FITC-AjKiss1a, FACS), HEK293/AjKissR2; conditions: 1.0 μM FITC-AjKiss1a, read-out: IC50 (competitive displacement of FITC-AjKiss1a)
Experimental: (§4) A fluorescence-activated cell sorter (FACS) was used to detect the binding ability of kisspeptins with AjKissR1 or AjKissR2. HEK293 cells expressing FLAG–AjKissR1 or FLAG–AjKissR2 were washed with PBS that contained 0.2% bovine serum albumin (FACS buffer). We designed and synthesized an N-terminal FITC-labeled AjKiss1a peptide (see 'Key resources table'). Different kisspeptins were diluted in the FACS buffer to different concentrations, then added to cells that were incubated on ice for 60–90 min. Cells were washed thrice with the FACS buffer and re-suspended in the FACS buffer with 1% paraformaldehyde for 15 min. The binding activity of the indicated kisspeptin peptides with AjKissR1 or AjKissR2 was determined by measuring the fluorescence of FITC and was presented as a percentage of total binding.

[6] = molecular target: T2, AjKissR1; assay: Ligand competition binding assay (FITC-AjKiss1a, FACS), HEK293/AjKissR1; conditions: 1.0 μM FITC-AjKiss1a, read-out: IC50 (competitive displacement of FITC-AjKiss1a)
Experimental: as §4

[7] = molecular target: FLAG–AjKissR2 (Apostichopus japonicus); assay: flow cytometry on cells; ligand competition: 1.0 uM FITC-AjKiss1a with unlabeled kisspeptins at the indicated concentrations on HEK293 cells expressing FLAG-AjKissR1 or FLAG-AjKissR2; on ice 60-90 min; PBS with 0.2% BSA; FITC fluorescence as percentage of total binding
[8] = molecular target: T3, FLAG–AjKissR1 (Apostichopus japonicus); assay: competition with 1.0 uM FITC-AjKiss1a
T3 chain: T2 sequence (A0A5B7LK60 1-378)

[9] = different concentrations for 5 min, immunoblot quantification, Figure 6A

CC(=O)OCOC(=O)CN(CC(=O)OCOC(C)=O)c1ccccc1OCCOc1ccccc1N(CC(=O)OCOC(C)=O)CC(=O)OCOC(C)=O [BAPTA-AM, 1,2-bis(o-aminophenoxy)ethane N,N,N',N'-tetraacetic acid acetoxymethyl ester, reference compound]
Effect of inhibitor pre-treatment on AjKiss1a/AjKiss1b-elicited Ca2+ mobilization (in words) [1]: significantly attenuated | Effect of inhibitor pre-treatment on AjKiss1a/AjKiss1b-elicited Ca2+ mobilization (in words) [2]: significantly attenuated

O=C(O)CN(CCOCCOCCN(CC(=O)O)CC(=O)O)CC(=O)O [EGTA, reference compound]
Effect of inhibitor pre-treatment on AjKiss1a/AjKiss1b-elicited Ca2+ mobilization (in words) [1]: significantly attenuated | Effect of inhibitor pre-treatment on AjKiss1a/AjKiss1b-elicited Ca2+ mobilization (in words) [2]: significantly attenuated

C=C1C(=O)N[C@@H](C)C(=O)N(C)[C@@H](C)C(=O)N[C@@H]([C@H](OC(=O)[C@@H](NC(=O)CC)[C@H](O)C(C)C)C(C)C)C(=O)N(C)[C@@H]([C@@H](C)OC)C(=O)O[C@H](C(C)C)[C@H](NC(C)=O)C(=O)O[C@H](Cc2ccccc2)C(=O)N1C [FR900359, reference compound] (Ac-[X1][dPhLac][NMeDha]A[NMeA][X1](Leu(3R-OH,Nα-propionyl))[NMeT](Me); ester 1-C)
Effect of inhibitor pre-treatment on AjKiss1a/AjKiss1b-elicited Ca2+ mobilization (in words) [1]: completely blocked | Effect of inhibitor pre-treatment on AjKiss1a/AjKiss1b-elicited Ca2+ mobilization (in words) [2]: completely blocked

COc1ccc2c(c1)c(C1=C(c3c[nH]c4ccccc34)C(=O)NC1=O)cn2CCCN(C)C [Gö6983]
Effect of inhibitor on AjKiss1b-10-activated ERK1/2 phosphorylation (in words) [3]: significantly blocked | Effect of inhibitor on AjKiss1b-10-activated ERK1/2 phosphorylation (in words) [4]: significantly blocked

COc1ccc2c(c1)CC[C@@H]1[C@@H]2CC[C@]2(C)[C@@H](NCCCCCCN3C(=O)C=CC3=O)CC[C@@H]12 [U73122, reference compound]
Effect of inhibitor pre-treatment on AjKiss1a/AjKiss1b-elicited Ca2+ mobilization (in words) [1]: significantly attenuated | Effect of inhibitor pre-treatment on AjKiss1a/AjKiss1b-elicited Ca2+ mobilization (in words) [2]: significantly attenuated | Effect of inhibitor on AjKiss1b-10-activated ERK1/2 phosphorylation (in words) [3]: significantly blocked | Effect of inhibitor on AjKiss1b-10-activated ERK1/2 phosphorylation (in words) [4]: significantly blocked

AHYRTLPF-NH2 [AjKiss1a-10, truncated peptide of AjKiss1a]
Potency in triggering intracellular Ca2+ mobilization via AjKissR2 (in words) [1]: failed to activate | Potency in triggering intracellular Ca2+ mobilization via AjKissR1 (in words) [2]: failed to activate

FITC–AGSLDc < CLEASC > EDVERRGRQPNRNAHYRTLPF-NH2 (disulfide) [FITC–AjKiss1a]
Potency in triggering intracellular Ca2+ mobilization via AjKissR2 (in words) [1]: comparable to that induced by the wild-type neuropeptide | Potency in triggering intracellular Ca2+ mobilization via AjKissR1 (in words) [2]: comparable to that induced by the wild-type neuropeptide

FNYNPFGLRF-NH2 [DrKiss2-10, synthetic zebrafish kisspeptin decapeptide, reference compound]
Potency in triggering intracellular Ca2+ mobilization via AjKissR2 (in words) [1]: higher potency than that of HsKiss1-10; also recorded: potent | Potency in triggering intracellular Ca2+ mobilization via AjKissR1 (in words) [2]: much lower potency; also recorded: potent

GRQPNRNAHYRTLPF-NH2 [AjKiss1a-15, truncated peptide of AjKiss1a]
Potency in triggering intracellular Ca2+ mobilization via AjKissR2 (in words) [1]: failed to activate | Potency in triggering intracellular Ca2+ mobilization via AjKissR1 (in words) [2]: failed to activate

HsNPS: human neuropeptide S, as a negative control (SFRNGVGTGMKKTSFQRAKS) [reference compound]
Potency in triggering intracellular Ca2+ mobilization via AjKissR2 (in words) [1]: no potency | Potency in triggering intracellular Ca2+ mobilization via AjKissR1 (in words) [2]: no potency

SAVKNKNKSRARPPLLPF-NH2 [AjKiss1b]
EC50 [1]: 33.2 nM | EC50 [2]: 8.06 nM | IC50 [5]: 1250 nM | IC50 [6]: 353 nM

SRARPPLLPF-NH2 [AjKiss1b-10]
EC50 [1]: 27.3 nM | EC50 [2]: 1.71 nM | EC50 [3, 9]: 31.6 nM | EC50 [4, 9]: 98.7 nM

YNLNSFGLRY-NH2 [DrKiss1-10, synthetic zebrafish kisspeptin decapeptide, reference compound]
Potency in triggering intracellular Ca2+ mobilization via AjKissR2 (in words) [1]: higher potency than that of HsKiss1-10; also recorded: potent | Potency in triggering intracellular Ca2+ mobilization via AjKissR1 (in words) [2]: much lower potency; also recorded: potent

YNVNSFGLRF-NH2 [XtKiss1b-10, synthetic frog kisspeptin decapeptide, reference compound]
Potency in triggering intracellular Ca2+ mobilization via AjKissR2 (in words) [1]: higher potency than that of HsKiss1-10; also recorded: potent | Potency in triggering intracellular Ca2+ mobilization via AjKissR1 (in words) [2]: higher potency; also recorded: potent

YNWNSFGLRF-NH2 [HsKiss1-10, synthetic human kisspeptin decapeptide, reference compound]
Potency in triggering intracellular Ca2+ mobilization via AjKissR2 (in words) [1]: potent | Potency in triggering intracellular Ca2+ mobilization via AjKissR1 (in words) [2]: higher potency; also recorded: potent

B1: AjKiss1a (C-terminal amidated) (peptide)
peptide: AGSLDCLEASCEDVERRGRQPNRNAHYRTLPF-NH2
modifications: disulfide 6-11; N-terminus assumed
SMILES: CC(C)C[C@H](NC(=O)[C@H](CO)NC(=O)CNC(=O)[C@H](C)N)C(=O)N[C@@H](CC(=O)O)C(=O)N[C@H]1CSSC[C@@H](C(=O)N[C@@H](CCC(=O)O)C(=O)N[C@@H](CC(=O)O)C(=O)N[C@H](C(=O)N[C@@H](CCC(=O)O)C(=O)N[C@@H](CCCNC(=N)N)C(=O)N[C@@H](CCCNC(=N)N)C(=O)NCC(=O)N[C@@H](CCCNC(=N)N)C(=O)N[C@@H](CCC(N)=O)C(=O)N2CCC[C@H]2C(=O)N[C@@H](CC(N)=O)C(=O)N[C@@H](CCCNC(=N)N)C(=O)N[C@@H](CC(N)=O)C(=O)N[C@@H](C)C(=O)N[C@@H](Cc2c[nH]cn2)C(=O)N[C@@H](Cc2ccc(O)cc2)C(=O)N[C@@H](CCCNC(=N)N)C(=O)N[C@H](C(=O)N[C@@H](CC(C)C)C(=O)N2CCC[C@H]2C(=O)N[C@@H](Cc2ccccc2)C(N)=O)[C@@H](C)O)C(C)C)NC(=O)[C@H](CO)NC(=O)[C@H](C)NC(=O)[C@H](CCC(=O)O)NC(=O)[C@H](CC(C)C)NC1=O
IC50 [7]: 95.2 nM | IC50 [8]: 568 nM
